Source: patent publication US8828414B2, “Biocidal composition of 2,6-dimethyl-m-dioxane-4-ol acetate and methods of use” (priority 2009, dated 2014)

Assays:
Assay type in all cases: cell-based
[1] = tested on: Pseudomonas aeruginosa, Enterobacter aerogenes, Escherichia coli, Klebsiella pneumoniae, Staphylococcus aureus, Salmonella choleraesuis (combined cultures); test: Preservative efficacy of DMX/BNPD in spinning finish emulsion, repeated bacterial challenge; settings: ≧6 log10 microbial kill, day 27, post 4th microbial challenge
Protocol: (§1) Synergy Calculations. The reported synergy indexes are measured and calculated using the formula described below. In this approach, a synergy index of 1 indicates additivity. If the index is less than 1, synergy has occurred, while a synergy index greater than 1 indicates antagonism. Synergy index=CA/Ca+CB/Cb • Ca=minimal concentration of antimicrobial A, alone, producing a 4 log10 microbial kill • Cb=minimal concentration of antimicrobial B, alone, producing a 4 log10 microbial kill
(§2) CA and CB=the concentrations of antimicrobials A and B, in combination, producing the required microbial kill (a 4 log10 microbial kill unless indicated otherwise in a particular Example).
In this Example, the antimicrobial profiles of dimethoxane (DMX), 2-bromo-2-nitropropane-1,3-diol (BNPD) and combinations of DMX and BNPD are evaluated in a spinning finish emulsion. The spinning finish emulsion is determined to be free of microbial contamination prior to initiation of preservative efficacy evaluations. The spinning finish emulsion is prepared by adding 1 part spinning finish oil to 9 parts distilled water followed by 30 minutes of mixing.
Experimental Setup. Tests are conducted in a 96-deep well block format using a total sample volume of 300 to 600 μl for all evaluations. […]

[2] = tested on: Pseudomonas aeruginosa, Enterobacter gergoviae, Pseudomonas putida, Salmonella choleraesuis, Escherichia coli, Staphylococcus aureus (mixed inoculum); test: Preservative efficacy of dimethoxane/BNPD in laundry detergent, repeated bacterial challenge; parameters: key to viable microorganism score (0-8 scale): 0-8 score = number of 1:10 dilutions to reach growth endpoint; settings: day 20
Protocol: as §1, §2
A sample of laundry detergent is treated with dimethoxane, BNPD, and combinations thereof. The samples are inoculated with four times over a four-week period with a 5×10^6 colony forming units per milliliter (CFU/mL) inoculum that includes Pseudomonas aeruginosa ATCC#9027, Enterobacter gergoviae ATCC#33028 Pseudomonas putida ATCC#49128, Salmonella choleraesuis ATCC#10708, Pseudomonas aeruginosa ATCC#10145, Pseudomonas aeruginosa ATCC#15442, Escherichia coli ATCC#11229, and Staphylococcus aureus ATCC#6538. The samples are inoculated on days 0, 2, 7, and 14 and analyzed for bacteria content on days 0, 1, 2, 3, 6, 8, 13, 15, 20, and 27. The bacteria concentrations are determined by serial dilution (1:10) until a growth endpoint is reached. The sample is scored on a 0-8 scale, based upon the number of serial dilutions required to reach the growth endpoint. For example, if a sample requires four 1:10 dilutions before bacterial growth is lost, then the sample receives a score of 4 which represents between 5×10^4 and 5×10^5 viable organisms.

[3] = tested on: Pseudomonas aeruginosa, Enterobacter aerogenes, Escherichia coli, Klebsiella pneumoniae, Staphylococcus aureus, Salmonella choleraesuis (combined cultures); test: Preservative efficacy of DMX/BNPD in water-based latex paint, repeated bacterial challenge; settings: for log10 viable microorganisms recovered: day 20
Protocol: as §1, §2
In this Example, the antimicrobial profiles of dimethoxane (DMX), 2-bromo-2-nitropropane-1,3-diol (BNPD) and combinations of DMX and BNPD are evaluated in a commercial (interior eggshell) water-based latex paint formulation (pH 7.4). The paint formulation is determined to be free of microbial contamination prior to initiation of preservative efficacy evaluations.
Experimental Setup. Tests are conducted in a 96-deep well block format using a total sample volume of 600 μl for all evaluations. In these samples, no more than 10% of the total volume consists of the biocide and organism solution and all non-matrix additions are normalized for all samples. Each experimental 96-well block contains biocide-treated samples and control samples which lack biocide.
Microorganisms. Twenty-four hour tryptic soy broth cultures are combined in equal parts for formulation inoculation at a final concentration of 5×10^6 CFU/ml. Organisms are added to each sample of the 96-well block and mixed until homogenous. Additionally, bacterial challenges of the paint samples occur on days 0, 2, 7, and 14 of the 28-day test period. Organisms utilized: Pseudomonas aeruginosa (ATCC#15442), Pseudomonas aeruginosa (ATCC#10145), Enterobacter aerogenes (ATCC#13048), Escherichia coli (ATCC#11229), Klebsiella pneumoniae (ATCC#8308), Staphylococcus aureus (ATCC#6538), Salmonella choleraesuis (ATCC#10708).
Enumeration of Viable Organisms. Sample aliquots are removed, at predetermined time points, for the enumeration of surviving microorganisms. Numerical values in the data tables listed below represent the log10 viable microorganisms recovered from individual samples at specific time points and biocide concentrations post microorganism addition. Biocide concentrations resulting in a ≧4 log10 kill of microorganisms, as compared to the preservative-free control, are deemed a significant reduction of viable organisms and are subsequently used for calculating synergy index values.

[4] = tested on: Pseudomonas aeruginosa, Enterobacter gergoviae, Pseudomonas putida, Salmonella choleraesuis, Escherichia coli, Staphylococcus aureus (mixed inoculum); test: Preservative efficacy of dimethoxane/2-phenoxyethanol in laundry detergent, repeated bacterial challenge; settings: day 27
[5] = tested on: Pseudomonas aeruginosa, Enterobacter gergoviae, Pseudomonas putida, Salmonella choleraesuis, Escherichia coli, Staphylococcus aureus (mixed inoculum); test: Preservative efficacy of dimethoxane/dibromoglutaronitrile in laundry detergent, repeated bacterial challenge; settings: day 20
[6] = ≧4 log10 microbial kill, day 20, after four bacterial challenges, ppm active
[7] = minimal concentration alone giving passing score (2 or less)

O=[N+]([O-])C(Br)(CO)CO [BNPD, 2-Bromo-2-nitropropane-1,3-diol]
BNPD alone (ppm), active concentration necessary for microbial kill [1]: 137 ppm
BNPD alone (ppm) ([2]; 4 log10 kill of bacteria): 99 ppm
viable microorganism score (0-8 scale) ([2]; BNPD 44 ppm alone): 4.0
viable microorganism score (0-8 scale) ([2]; BNPD 66 ppm alone): 2.0
viable microorganism score (0-8 scale) ([2]; BNPD 99 ppm alone): 0.0
viable microorganism score (0-8 scale) ([2]; BNPD 148 ppm alone): 0.0
viable microorganism score (0-8 scale) ([2]; BNPD 222 ppm alone): 0.0
viable microorganism score (0-8 scale) ([2]; BNPD 333 ppm alone): 0.0
viable microorganism score (0-8 scale) ([2]; BNPD 500 ppm alone): 0.0
viable microorganism score (0-8 scale) ([2]; BNPD 750 ppm alone): 0.0
log10 viable microorganisms recovered ([3]; BNPD 26 ppm alone): 8
log10 viable microorganisms recovered ([3]; BNPD 40 ppm alone): 8
log10 viable microorganisms recovered ([3]; BNPD 59 ppm alone): 8
log10 viable microorganisms recovered ([3]; BNPD 89 ppm alone): 8
log10 viable microorganisms recovered ([3]; BNPD 133 ppm alone): 8
log10 viable microorganisms recovered ([3]; BNPD 200 ppm alone): 8
log10 viable microorganisms recovered ([3]; BNPD 300 ppm alone): 0
log10 viable microorganisms recovered ([3]; BNPD 450 ppm alone): 0
BNPD alone (ppm) [3, 6]: 300 ppm

OCCOc1ccccc1 [Combination 2-PE, 2-Phenoxyethanol]
viable microorganism score (0-8 scale) ([4]; 2-PE 585 ppm alone): 7
viable microorganism score (0-8 scale) ([4]; 2-PE 878 ppm alone): 7
viable microorganism score (0-8 scale) ([4]; 2-PE 1317 ppm alone): 7
viable microorganism score (0-8 scale) ([4]; 2-PE 1975 ppm alone): 7
viable microorganism score (0-8 scale) ([4]; 2-PE 2963 ppm alone): 5
viable microorganism score (0-8 scale) ([4]; 2-PE 4444 ppm alone): 6
viable microorganism score (0-8 scale) ([4]; 2-PE 6667 ppm alone): 6
viable microorganism score (0-8 scale) ([4]; 2-PE 10000 ppm alone): 0
Min alone, 2-PE (ppm) [4, 7]: 10000 ppm

N#CCCC(Br)(C#N)CBr (stereo not shown) [DBGN, 2-Bromo-2-(bromomethyl)glutaronitrile]
viable microorganism score (0-8 scale) ([5]; DBGN 3 ppm alone): 8
viable microorganism score (0-8 scale) ([5]; DBGN 4 ppm alone): 8
viable microorganism score (0-8 scale) ([5]; DBGN 7 ppm alone): 8
viable microorganism score (0-8 scale) ([5]; DBGN 10 ppm alone): 8
viable microorganism score (0-8 scale) ([5]; DBGN 15 ppm alone): 8
viable microorganism score (0-8 scale) ([5]; DBGN 22 ppm alone): 7
viable microorganism score (0-8 scale) ([5]; DBGN 33 ppm alone): 3
viable microorganism score (0-8 scale) ([5]; DBGN 50 ppm alone): 0
Min alone, DBGN (ppm) [5, 7]: 50 ppm

CC(=O)OC1CC(C)OC(C)O1 (stereo not shown) [DMX, 2,6-Dimethyl-m-dioxan-4-ol acetate]
viable microorganism score (0-8 scale) ([5]; DMX 76 ppm alone): 8
viable microorganism score (0-8 scale) ([5]; DMX 115 ppm alone): 8
viable microorganism score (0-8 scale) ([5]; DMX 172 ppm alone): 8
viable microorganism score (0-8 scale) ([5]; DMX 258 ppm alone): 7
viable microorganism score (0-8 scale) ([5]; DMX 387 ppm alone): 3
viable microorganism score (0-8 scale) ([5]; DMX 580 ppm alone): 2
viable microorganism score (0-8 scale) ([5]; DMX 870 ppm alone): 2
viable microorganism score (0-8 scale) ([5]; DMX 1305 ppm alone): 0
Min alone, DMX (ppm) [5, 7]: 580 ppm
DMX alone (ppm) ([2]; 4 log10 kill of bacteria): 1160 ppm
viable microorganism score (0-8 scale) ([2]; DMX 153 ppm alone): 5.0
viable microorganism score (0-8 scale) ([2]; DMX 229 ppm alone): 5.0
viable microorganism score (0-8 scale) ([2]; DMX 344 ppm alone): 5.0
viable microorganism score (0-8 scale) ([2]; DMX 516 ppm alone): 6.0
viable microorganism score (0-8 scale) ([2]; DMX 773 ppm alone): 4.0
viable microorganism score (0-8 scale) ([2]; DMX 1160 ppm alone): 0.0
viable microorganism score (0-8 scale) ([2]; DMX 1740 ppm alone): 0.0
viable microorganism score (0-8 scale) ([2]; DMX 2610 ppm alone): 0.0
log10 viable microorganisms recovered ([3]; DMX 102 ppm alone): 8
log10 viable microorganisms recovered ([3]; DMX 153 ppm alone): 8
log10 viable microorganisms recovered ([3]; DMX 229 ppm alone): 8
log10 viable microorganisms recovered ([3]; DMX 344 ppm alone): 8
log10 viable microorganisms recovered ([3]; DMX 516 ppm alone): 8
log10 viable microorganisms recovered ([3]; DMX 773 ppm alone): 8
log10 viable microorganisms recovered ([3]; DMX 1160 ppm alone): 8
log10 viable microorganisms recovered ([3]; DMX 1740 ppm alone): 0
DMX alone (ppm) [3, 6]: 1740 ppm
viable microorganism score (0-8 scale) ([4]; DMX 153 ppm alone): 7
viable microorganism score (0-8 scale) ([4]; DMX 229 ppm alone): 6
viable microorganism score (0-8 scale) ([4]; DMX 344 ppm alone): 6
viable microorganism score (0-8 scale) ([4]; DMX 516 ppm alone): 6
viable microorganism score (0-8 scale) ([4]; DMX 773 ppm alone): 0
viable microorganism score (0-8 scale) ([4]; DMX 1160 ppm alone): 0
viable microorganism score (0-8 scale) ([4]; DMX 1740 ppm alone): 0
viable microorganism score (0-8 scale) ([4]; DMX 2610 ppm alone): 0
Min alone, Dimethoxane (ppm) [4, 7]: 773 ppm
